Results as given in the supplement of paper PMC4862054.

Tests used:
Details in all cases: incubation time: 72 h
BT-474 [1] = test: normalised response (% of control), CellTox Green; higher = less cell death (100 = DMSO, 0 = benzethonium chloride kill control)
Procedure, shortened: (§1)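 The table gives the normalised signal for a single concentration in each entry. Breast cancer cell lines were seeded (20 µl suspension) into 384-well plates holding compound at 5 concentrations in 10-fold steps over a compound-specific 10,000-fold range and incubated 72 h, then read for CellTox Green fluorescence (485/520 nm) and CellTiter-Glo luminescence. Normalisation on each plate used 0.1 % DMSO (100) and a positive kill control (0).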

BT-549 [2] = test: as above
Procedure, shortened: as §1

CAL-120 [3] = test: as above
Procedure, shortened: as §1

CAL-148 [4] = test: as above
Procedure, shortened: as §1

CAL-51 [5] = test: as above
Procedure, shortened: as §1

CAL-85-1 [6] = test: as above
Procedure, shortened: as §1

DU-4475 [7] = test: as above
Procedure, shortened: as §1

HCC1143 [8] = test: as above
Procedure, shortened: as §1

HCC1599 [9] = test: as above
Procedure, shortened: as §1

HCC1937 [10] = test: as above
Procedure, shortened: as §1

HDQ-P1 [11] = test: as above
Procedure, shortened: as §1

Hs578T [12] = test: as above
Procedure, shortened: as §1

MCF-10A [13] = test: as above
Procedure, shortened: as §1

MDA-MB-231 [14] = test: as above
Procedure, shortened: as §1

MDA-MB-436 [15] = test: as above
Procedure, shortened: as §1

MDA-MB-453 [16] = test: as above
Procedure, shortened: as §1

MDA-MB-468 [17] = test: as above
Procedure, shortened: as §1

BT-474 [18] = test: normalised response (% of control), CellTiter-Glo; higher = more viable cells (100 = DMSO, 0 = benzethonium chloride kill control)
Procedure: (§2)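 DSRT, 72 h incubation, CellTox Green / CellTiter-Glo readout. Signal is normalised to DMSO and benzethonium chloride controls. Value is the normalised response at dose 3.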

BT-549 [19] = test: as above
Procedure: as §2

CAL-120 [20] = test: as above
Procedure: as §2

CAL-148 [21] = test: as above
Procedure: as §2

CAL-51 [22] = test: as above
Procedure: as §2

CAL-85-1 [23] = test: as above
Procedure: as §2

DU-4475 [24] = test: as above
Procedure: as §2

HCC1143 [25] = test: as above
Procedure: as §2

HCC1599 [26] = test: as above
Procedure: as §2

HCC1937 [27] = test: as above
Procedure: as §2

HDQ-P1 [28] = test: as above
Procedure: as §2

Hs578T [29] = test: as above
Procedure: as §2

MCF-10A [30] = test: as above
Procedure: as §2

MDA-MB-231 [31] = test: as above
Procedure: as §2

MDA-MB-436 [32] = test: as above
Procedure: as §2

MDA-MB-453 [33] = test: as above
Procedure: as §2

MDA-MB-468 [34] = test: as above
Procedure: as §2

MFM-223 [35] = test: as above
Procedure: as §2

SK-BR-3 = test: as above
Procedure: as §2

MFM-223 [36] = test: normalised response (% of control), CellTox Green; higher = less cell death (100 = DMSO, 0 = benzethonium chloride kill control)
Procedure, shortened: as §1

SMILES	normalised response (BT-474 [1])	normalised response (BT-549 [2])	normalised response (CAL-120 [3])	normalised response (CAL-148 [4])	normalised response (CAL-51 [5])	normalised response (CAL-85-1 [6])	normalised response (DU-4475 [7])	normalised response (HCC1143 [8])	normalised response (HCC1599 [9])	normalised response (HCC1937 [10])	normalised response (HDQ-P1 [11])	normalised response (Hs578T [12])	normalised response (MCF-10A [13])	normalised response (MDA-MB-231 [14])	normalised response (MDA-MB-436 [15])	normalised response (MDA-MB-453 [16])	normalised response (MDA-MB-468 [17])	normalised response (BT-474 [18])	normalised response (BT-549 [19])	normalised response (CAL-120 [20])	normalised response (CAL-148 [21])	normalised response (CAL-51 [22])	normalised response (CAL-85-1 [23])	normalised response (DU-4475 [24])	normalised response (HCC1143 [25])	normalised response (HCC1599 [26])	normalised response (HCC1937 [27])	normalised response (HDQ-P1 [28])	normalised response (Hs578T [29])	normalised response (MCF-10A [30])	normalised response (MDA-MB-231 [31])	normalised response (MDA-MB-436 [32])	normalised response (MDA-MB-453 [33])	normalised response (MDA-MB-468 [34])	normalised response (MFM-223 [35])	normalised response (SK-BR-3)	normalised response (MFM-223 [36])
Cc1cc2c(F)c(Oc3ncnn4cc(OC[C@@H](C)O)c(C)c34)ccc2[nH]1 [Brivanib] (10 nM)	99.8%	60.1%	98%	103%	108%	106%	104%	111%	104%	82%	72.3%	88.4%	89.7%	111%	96%	109%	91.2%	105%	100%	100%	108%	106%	102%	99.6%	105%	104%	101%	99.5%	102%	113%	111%	112%	102%	105%	108%	115%	–
Nc1nc(Cl)nc2c1ncn2[C@@H]1O[C@H](CO)[C@@H](O)[C@@H]1F [Clofarabine] (100 nM)	104%	102%	107%	92.7%	86%	113%	114%	105%	103%	62.3%	100%	90.3%	99.3%	106%	102%	106%	–	82.3%	79.5%	93.8%	96.2%	76%	93.2%	99.4%	96.4%	76.2%	84.1%	98.5%	98.6%	109%	83.9%	90.3%	105%	94.3%	104%	82.6%	99.3%
C[C@@H]1C[C@H]2[C@@H]3CCC4=CC(=O)C=C[C@]4(C)[C@@]3(F)[C@@H](O)C[C@]2(C)[C@@]1(O)C(=O)CO [Dexamethasone] (100 nM)	96.4%	101%	96.7%	97.2%	99.4%	107%	96.4%	101%	96%	68%	–	114%	97%	–	67.3%	95.5%	97.2%	145%	103%	72.8%	91.2%	101%	113%	102%	101%	95.2%	99%	84.8%	92.5%	84.3%	154%	101%	83.8%	103%	95.7%	88.4%	95.7%
O=NN(CCCl)C(=O)NC1CCCCC1 [Lomustine] (100 nM)	101%	77.1%	102%	–	109%	113%	103%	104%	101%	96.5%	96.1%	102%	103%	110%	108%	106%	103%	104%	103%	97.7%	91.5%	104%	95.6%	107%	104%	90.1%	89.4%	104%	99.6%	98.4%	99.4%	101%	101%	96.1%	110%	102%	105%
NC1(c2ccc(-c3nc4ccn5c(=O)[nH]nc5c4cc3-c3ccccc3)cc2)CCC1 [MK-2206] (10 nM)	99%	86.6%	103%	–	83.6%	95.4%	103%	110%	118%	81.7%	114%	96.1%	111%	115%	95.6%	110%	139%	102%	107%	102%	107%	74.5%	99.8%	102%	104%	84.7%	96.5%	95.5%	102%	110%	108%	102%	88.5%	102%	104%	93.8%	104%
O=C(c1cc(Cc2n[nH]c(=O)c3ccccc23)ccc1F)N1CCN(C(=O)C2CC2)CC1 [Olaparib] (100 nM)	96.5%	105%	95%	79.6%	81.9%	103%	101%	110%	101%	94.9%	101%	110%	98.9%	97.4%	88.4%	103%	–	96.5%	100%	91.4%	98.5%	66.4%	102%	95.8%	94.4%	103%	96%	96.8%	97.7%	101%	93.8%	91.3%	107%	105%	99.2%	88.8%	103%
CN1CCN(c2nc(C3=C(c4c[nH]c5ccccc45)C(=O)NC3=O)c3ccccc3n2)CC1 [Sotrastaurin] (100 nM)	102%	99.3%	83.6%	98.4%	98%	113%	99.6%	76.4%	97.2%	64.6%	101%	93.3%	91.4%	67%	96.6%	97.8%	162%	98.2%	98.7%	98.1%	97.2%	112%	102%	94.3%	98.8%	99.1%	97.8%	96.1%	97.5%	87.5%	102%	98.9%	95.6%	99.3%	92.1%	100%	–
COc1cc2c(N3CCN(C(=O)Nc4ccc(OC(C)C)cc4)CC3)ncnc2cc1OCCCN1CCCCC1 [Tandutinib] (10 nM)	84.8%	98.8%	87.9%	–	95%	99%	98%	86.5%	96.8%	81.3%	90.3%	69.4%	104%	99.9%	101%	90.3%	63.1%	98.9%	104%	100%	102%	69.2%	109%	97.1%	98.1%	106%	97.4%	99.7%	101%	97.8%	103%	106%	96.3%	103%	100%	100%	78.6%
CN1CCc2c(c3ccccc3n2Cc2ccc(C(=O)NO)cc2)C1 [Tubastatin A] (100 nM)	101%	86.2%	103%	99.3%	105%	102%	104%	105%	99.9%	92.5%	101%	110%	101%	116%	109%	107%	–	96.8%	103%	98.1%	106%	91.8%	98.2%	102%	104%	99.2%	101%	95.4%	102%	102%	99.9%	93.1%	96.3%	95.3%	96.9%	97.5%	93.8%
